# Where two headings read alike, the source gives them in different places.
# Tested on: ISR pathway (ATF4 translation)
# Experiment: ATF4 Nano Luciferase reporter integrated stress response (ISR) assay in H4 ATF4-NLuc cells
# Conditions: Homo sapiens
# [1] = read-out: Activity (IC50), H4 ATF4-NLuc (clone 17) cells, compound 30 minutes, then 50 um sodium arsenite for 6 hours, luminescence readout
Compound,IC50 [1] [µM],IC50 (read-out: Activity (IC50)) [µM]
O=C(CO[C@H]1C[C@@H](OC(F)(F)F)C1)NC12CC(c3nc4cc(Cl)ccc4o3)(C1)C2 [Example 234],1 to 10,–
O=C(NC12CC(c3nnc(-c4ccc(Cl)c(F)c4)o3)(C1)C2)[C@H]1CC[C@H](COC(F)(F)F)CC1 [Example 235],< 1,–
O=C(COc1ccc(Cl)c(F)c1)NC12CC(NC(=O)OC[C@H]3C[C@H](OC(F)(F)F)C3)(C1)C2 [Example 238],< 1,–
O=C(CO[C@H]1C[C@@H](OC(F)(F)F)C1)NC12CC(c3ncn(-c4ccc(Cl)c(F)c4)n3)(C1)C2 [Example 239],< 1,–
CCO[C@H]1C[C@@H](OCC(=O)NC23CC(n4cnc(-c5ccc(Cl)c(F)c5)c4)(C2)C3)C1 [Example 240],< 1,–
O=C(CO[C@H]1C[C@@H](OC(F)(F)F)C1)NC12CC(c3nnc(-c4ccc(Cl)cn4)s3)(C1)C2 [Example 241],< 1,–
O=C(COc1ccc(Cl)cc1)NC12CC(c3nnn([C@H]4C[C@@H](OC(F)(F)F)C4)n3)(C1)C2 [Example 242],< 1,–
O=C(CO[C@H]1C[C@@H](OC(F)(F)F)C1)NC12CC(c3nnn(-c4ccc(Cl)cc4)n3)(C1)C2 [Example 243],< 1,–
O=C(COc1ccc(Cl)c(F)c1)NC12CC(c3nnc([C@H]4C[C@@H](n5nccn5)C4)o3)(C1)C2 [Example 244],< 1,–
O=C(COc1ccc(Cl)c(F)c1)NC12CC(c3nnc([C@H]4C[C@@H](n5ccnn5)C4)o3)(C1)C2 [Example 245],< 1,–
O=C(CO[C@H]1C[C@@H](OC(F)(F)F)C1)NC12CC(NCCOc3ccc(Cl)c(F)c3)(C1)C2 [Example 246],< 1,–
O=C(CO[C@H]1C[C@@H](OC(F)(F)F)C1)NC12CC(c3cnc(-c4ccc(Cl)c(F)c4)o3)(C1)C2 [Example 247],< 1,–
O=C(NC12CC(n3cnc(-c4ccc(F)c(F)c4)c3)(C1)C2)[C@H]1C[C@H](OCCOC(F)(F)F)C1 [Example 249],< 1,–
O=C(CO[C@H]1C[C@@H](OC(F)(F)F)C1)NC12CC(c3cc(-c4ccc(Cl)cc4)no3)(C1)C2 [Example 251],< 1,–
O=C(CO[C@H]1C[C@@H](OC(F)(F)F)C1)NC12CC(c3cc(-c4ccc(Cl)cc4F)no3)(C1)C2 [Example 252],< 1,–
O=C(NC12CC(c3nnc([C@H]4C[C@@H](OC(F)(F)F)C4)o3)(C1)C2)C(O)Cc1ccc(Cl)cc1 (stereo partly drawn) [Example 253],< 1,–
N#Cc1cc(C(F)(F)F)ccc1-c1cn(C23CC(NC(=O)CO[C@H]4C[C@@H](OC(F)(F)F)C4)(C2)C3)cn1 [Example 255],< 1,–
O=C(COc1ccc(Cl)c(CO)c1)NC12CC(c3nnc([C@H]4C[C@@H](OC(F)(F)F)C4)o3)(C1)C2 [Example 256],< 1,–
O=C(CC(O)c1ccc(Cl)cc1)NC12CC(c3nnc([C@H]4C[C@@H](OC(F)(F)F)C4)o3)(C1)C2 (stereo partly drawn) [Example 257],< 1,–
O=C(CO[C@H]1C[C@@H](OC(F)(F)F)C1)NC12CC(c3cc(-c4ccc5c(c4)OC(F)(F)O5)no3)(C1)C2 [Example 258],< 1,–
CC(C)(C)[Si](C)(C)O[C@H]1C[C@@H](c2nnc(C34CC(NC(=O)COc5ccc(Cl)cc5)(C3)C4)o2)C1 [Example 260],–,< 1
O=C(COc1ccc(Cl)cc1)NC12CC(c3nnc([C@H]4C[C@@H](O)C4)o3)(C1)C2 [Example 261],1 to 10,–
CC(COC(F)(F)F)OCC(=O)NC12CC(n3cnc(-c4ccc(Cl)c(F)c4)c3)(C1)C2 (stereo not drawn) [Example 262],< 1,–
O=C(CO[C@H]1C[C@@H](OC(F)(F)F)C1)NC12CC(c3cnn(-c4ccc(Cl)cc4)c3)(C1)C2 [Example 263],< 1,–
O=C(CO[C@H]1C[C@@H](OC(F)(F)F)C1)NC12CC(N3CCN(c4ccc(Cl)cc4)C3=O)(C1)C2 [Example 264],< 1,–
O=C(COc1ccc(Cl)cc1)NC12CC(N3C[C@H](C4CC(OC(F)(F)F)C4)OS3(=O)=O)(C1)C2 (stereo partly drawn) [Example 266],< 1,–
O=C(CO[C@H]1C[C@@H](OC(F)(F)F)C1)NC12CC(n3cnc(C4=NCC(C(F)(F)F)O4)c3)(C1)C2 (stereo partly drawn) [Example 267],< 1,–

# — patent US11851440B2, “Modulators of eukaryotic initiation factor 2B, compositions and methods” (Denali Therapeutics Inc., priority 2017, dated 2023)
